Legend:
[1] = tested on: KAI3; assay: drug sensitivity score (viability inhibition); higher = more sensitive; details: 72 h; IL2 2.5 ng/ml
In short: (§1)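 The experiment was repeated twice, each time with NK cell lines added at 3 000 cells/well in complete RPMI with 2.5 ng/ml IL2 to 384-well plates holding 5-8 drug concentrations over a 10 000-fold range. After 72 h at 37 °C, 5% CO2, a PHERAstar FS plate reader recorded CellTiter-Glo viability. From these readings, the drug sensitivity score was calculated as an optimized area under the dose-response curve.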

[2] = tested on: KHYG-1; assay: as above; details: 72 h; IL2 2.5 ng/ml
In short: as §1

[3] = tested on: NK-92; assay: as above; details: 72 h; IL2 2.5 ng/ml
In short: as §1

[4] = tested on: NK-YS; assay: as above; details: 72 h; IL2 2.5 ng/ml
In short: as §1

[5] = tested on: NKL; assay: as above; details: 72 h; IL2 2.5 ng/ml
In short: as §1

[6] = tested on: SNK6; assay: as above; details: 72 h; IL2 2.5 ng/ml
In short: as §1

[7] = tested on: YT; assay: as above; details: 72 h; IL2 2.5 ng/ml
In short: as §1

[8] = tested on: HEK293-SIE STAT3 WT; assay: drug sensitivity score (inhibition of STAT3 luciferase reporter); higher = stronger inhibition; details: 6 h; STAT3: WT; IL6 100 ng/ml
In short: (§2)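 The drug sensitivity score is an optimized area under the curve for inhibition of a STAT3-responsive luciferase reporter across drug doses. To obtain it, HEK293 reporter cells stably expressing wild-type or mutant STAT3 from a lentivirus were seeded at 10 000 cells/well into 384-well drug plates, and wild-type cells were stimulated with IL6 (100 ng/ml). Cells were treated for 6 h at 5-8 concentrations over a 10 000-fold range, read with ONE-Glo on a PHERAstar FS, and two experiments were averaged.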

[9] = tested on: HEK293-SIE STAT3 Y640F; assay: as above; details: 6 h; IL6 0 ng/ml
In short: as §2

Structure (SMILES) | drug sensitivity score [1] [DSS] | drug sensitivity score [2] [DSS] | drug sensitivity score [3] [DSS] | drug sensitivity score [4] [DSS] | drug sensitivity score [5] [DSS] | drug sensitivity score [6] [DSS] | drug sensitivity score [7] [DSS] | drug sensitivity score [8] [DSS] | drug sensitivity score [9] [DSS]
NS(=O)(=O)c1cccc2c1C(=O)c1cccc(O)c1C2=O [LLL12] | 18.9 | 22.9 | 23.1 | 15 | 24.9 | 28 | 18.2 | 17.1 | 12.4
CNC(=O)c1cc(Oc2ccc(NC(=O)Nc3ccc(Cl)c(C(F)(F)F)c3)c(F)c2)ccn1 [Regorafenib] | 2.25 | 6.89 | 8.97 | 7.25 | 5.14 | 10.1 | 8.71 | 6.65 | 5.5

From the supplement of paper PMC5722580
